{"source": "patent US20100004234A1", "about": "“SPECIFIC KINASE INHIBITORS” (Kosan Biosciences Incorporated, priority 2004, published 2010)", "key": {"Fes(h)": {"molecular_target": "Fes(h) (Homo sapiens, UniProt P07332)", "test": "Kinase panel, residual activity", "format": "biochemical", "settings": "read-out: Percent residual activity", "description": "(§1) In this panel of 124 kinases, 18 of the 19 kinases identified as having an active site cysteine were inhibited to some extent by hypothemycin at a concentration of 0.2 μM and/or 2 μM."}, "Syk(h)": {"molecular_target": "Syk(h) (Homo sapiens, UniProt P43405)", "test": "Kinase panel, residual activity", "format": "biochemical", "settings": "read-out: Percent residual activity", "description": "as §1"}, "CDK5/p35(h)": {"molecular_target": "CDK5/p35(h) (Homo sapiens, UniProt Q00535)", "test": "Kinase panel, residual activity", "format": "biochemical", "settings": "read-out: Percent residual activity", "description": "as §1"}, "IKKα(h)": {"molecular_target": "IKKα(h) (Homo sapiens, UniProt O15111)", "test": "Kinase panel, residual activity", "format": "biochemical", "settings": "read-out: Percent residual activity", "description": "as §1"}, "CHK1(h)": {"molecular_target": "CHK1(h) (Homo sapiens, UniProt O14757)", "test": "Kinase panel, residual activity", "format": "biochemical", "settings": "read-out: Percent residual activity", "description": "as §1"}, "JNK3(h)": {"molecular_target": "JNK3(h) (Homo sapiens, UniProt P53779)", "test": "Kinase panel, residual activity", "format": "biochemical", "settings": "read-out: Percent residual activity", "description": "as §1"}, "Ron(h)": {"molecular_target": "Ron(h) (Homo sapiens, UniProt Q04912)", "test": "Kinase panel, residual activity", "format": "biochemical", "settings": "read-out: Percent residual activity", "description": "as §1"}, "PKCη(h)": {"molecular_target": "PKCη(h) (Homo sapiens, UniProt P24723)", "test": "Kinase panel, residual activity", "format": "biochemical", "settings": "read-out: Percent residual activity", "description": "as §1"}, "SAPK2a(h)": {"molecular_target": "SAPK2a(h) (Homo sapiens, UniProt Q16539)", "test": "Kinase panel, residual activity", "format": "biochemical", "settings": "read-out: Percent residual activity", "description": "as §1"}, "PKCγ(h)": {"molecular_target": "PKCγ(h) (Homo sapiens, UniProt P05129)", "test": "Kinase panel, residual activity", "format": "biochemical", "settings": "read-out: Percent residual activity", "description": "as §1"}, "ROCK-I(h)": {"molecular_target": "ROCK-I(h) (Homo sapiens, UniProt Q13464)", "test": "Kinase panel, residual activity", "format": "biochemical", "settings": "read-out: Percent residual activity", "description": "as §1"}, "cKit(D816V)(h)": {"molecular_target": "cKit(D816V)(h) (Homo sapiens, UniProt P10721, D816V)", "sequence (P10721 26-976 D816V)": "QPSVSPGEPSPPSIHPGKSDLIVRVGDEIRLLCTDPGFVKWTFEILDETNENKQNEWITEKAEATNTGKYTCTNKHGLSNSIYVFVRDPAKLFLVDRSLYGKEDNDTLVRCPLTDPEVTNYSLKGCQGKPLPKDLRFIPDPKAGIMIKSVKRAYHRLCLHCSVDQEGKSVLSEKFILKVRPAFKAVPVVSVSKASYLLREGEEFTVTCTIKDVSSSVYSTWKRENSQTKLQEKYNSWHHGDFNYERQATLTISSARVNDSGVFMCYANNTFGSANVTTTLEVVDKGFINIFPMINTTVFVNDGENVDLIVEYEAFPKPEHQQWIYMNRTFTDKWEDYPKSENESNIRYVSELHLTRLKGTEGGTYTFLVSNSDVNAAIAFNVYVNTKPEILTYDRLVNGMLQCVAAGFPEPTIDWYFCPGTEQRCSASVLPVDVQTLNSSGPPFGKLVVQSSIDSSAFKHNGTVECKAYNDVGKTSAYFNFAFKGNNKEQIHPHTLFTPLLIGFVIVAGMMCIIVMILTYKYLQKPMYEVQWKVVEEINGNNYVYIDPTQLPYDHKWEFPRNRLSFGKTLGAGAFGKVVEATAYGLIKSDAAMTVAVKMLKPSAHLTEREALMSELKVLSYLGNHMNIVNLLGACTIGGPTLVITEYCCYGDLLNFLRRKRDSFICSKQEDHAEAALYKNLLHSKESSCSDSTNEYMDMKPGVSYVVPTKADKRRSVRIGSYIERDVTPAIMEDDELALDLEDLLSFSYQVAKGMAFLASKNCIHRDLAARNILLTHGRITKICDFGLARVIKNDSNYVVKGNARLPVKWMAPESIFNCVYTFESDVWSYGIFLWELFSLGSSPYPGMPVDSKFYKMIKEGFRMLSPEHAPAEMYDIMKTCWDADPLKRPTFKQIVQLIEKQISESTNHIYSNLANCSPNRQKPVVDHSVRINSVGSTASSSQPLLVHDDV", "test": "Kinase panel, residual activity", "format": "biochemical", "settings": "read-out: Percent residual activity", "description": "as §1"}, "CDK3/cyclinE(h)": {"molecular_target": "CDK3/cyclinE(h) (Homo sapiens, UniProt Q00526)", "test": "Kinase panel, residual activity", "format": "biochemical", "settings": "read-out: Percent residual activity", "description": "as §1"}, "FGFR3(h)": {"molecular_target": "FGFR3(h) (Homo sapiens, UniProt P22607)", "test": "Kinase panel, residual activity", "format": "biochemical", "settings": "read-out: Percent residual activity", "description": "as §1"}, "CK1δ(h)": {"molecular_target": "CK1δ(h) (Homo sapiens, UniProt P48730)", "test": "Kinase panel, residual activity", "format": "biochemical", "settings": "read-out: Percent residual activity", "description": "as §1"}, "PAK2(h)": {"molecular_target": "PAK2(h) (Homo sapiens, UniProt Q13177)", "test": "Kinase panel, residual activity", "format": "biochemical", "settings": "read-out: Percent residual activity", "description": "as §1"}, "Abl(h)": {"molecular_target": "Abl(h) (Homo sapiens, UniProt P00519)", "test": "Kinase panel, residual activity", "format": "biochemical", "settings": "read-out: Percent residual activity", "description": "as §1"}, "JNK1α1(h)": {"molecular_target": "JNK1α1(h) (Homo sapiens, UniProt P45983)", "test": "Kinase panel, residual activity", "format": "biochemical", "settings": "read-out: Percent residual activity", "description": "as §1"}, "EGFR(h)": {"molecular_target": "EGFR(h) (Homo sapiens, UniProt P00533)", "sequence (P00533 25-1210)": "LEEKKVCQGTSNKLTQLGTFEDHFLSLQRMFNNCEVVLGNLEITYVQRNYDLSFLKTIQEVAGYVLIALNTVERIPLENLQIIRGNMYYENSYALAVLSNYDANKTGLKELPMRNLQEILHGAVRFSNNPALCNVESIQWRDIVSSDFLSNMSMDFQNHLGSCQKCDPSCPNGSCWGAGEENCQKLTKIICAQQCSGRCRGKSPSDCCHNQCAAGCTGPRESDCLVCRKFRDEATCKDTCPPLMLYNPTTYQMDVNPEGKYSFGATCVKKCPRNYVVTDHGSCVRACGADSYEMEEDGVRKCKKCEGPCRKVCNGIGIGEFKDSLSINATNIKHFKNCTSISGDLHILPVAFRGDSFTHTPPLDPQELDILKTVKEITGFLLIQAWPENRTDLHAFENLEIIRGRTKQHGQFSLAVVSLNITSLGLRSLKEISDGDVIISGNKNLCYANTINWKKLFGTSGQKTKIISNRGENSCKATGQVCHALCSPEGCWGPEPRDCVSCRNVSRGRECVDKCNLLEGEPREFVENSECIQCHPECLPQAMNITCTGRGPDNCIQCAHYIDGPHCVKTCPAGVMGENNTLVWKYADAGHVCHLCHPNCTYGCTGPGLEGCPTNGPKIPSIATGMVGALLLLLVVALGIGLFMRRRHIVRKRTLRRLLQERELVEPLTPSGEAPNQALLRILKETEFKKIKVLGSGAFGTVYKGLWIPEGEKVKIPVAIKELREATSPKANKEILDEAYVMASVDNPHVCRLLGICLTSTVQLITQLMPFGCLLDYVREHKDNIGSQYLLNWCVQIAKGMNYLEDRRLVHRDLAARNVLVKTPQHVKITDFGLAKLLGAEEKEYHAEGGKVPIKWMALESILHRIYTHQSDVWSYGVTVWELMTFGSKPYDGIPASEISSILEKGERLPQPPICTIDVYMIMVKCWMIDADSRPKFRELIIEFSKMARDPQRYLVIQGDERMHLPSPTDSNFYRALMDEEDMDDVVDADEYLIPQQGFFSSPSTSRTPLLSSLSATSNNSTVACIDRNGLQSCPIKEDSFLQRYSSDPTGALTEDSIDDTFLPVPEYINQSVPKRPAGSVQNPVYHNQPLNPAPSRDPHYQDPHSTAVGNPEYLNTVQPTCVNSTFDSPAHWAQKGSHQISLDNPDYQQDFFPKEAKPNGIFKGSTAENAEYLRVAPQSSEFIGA", "test": "Kinase panel, residual activity", "format": "biochemical", "settings": "read-out: Percent residual activity", "description": "as §1"}, "SAPK2b(h)": {"molecular_target": "SAPK2b(h) (Homo sapiens, UniProt Q15759)", "test": "Kinase panel, residual activity", "format": "biochemical", "settings": "read-out: Percent residual activity", "description": "as §1"}, "Met(h)": {"molecular_target": "Met(h) (Homo sapiens, UniProt P08581)", "test": "Kinase panel, residual activity", "format": "biochemical", "settings": "read-out: Percent residual activity", "description": "as §1"}, "CSK(h)": {"molecular_target": "CSK(h) (Homo sapiens, UniProt P41240)", "test": "Kinase panel, residual activity", "format": "biochemical", "settings": "read-out: Percent residual activity", "description": "as §1"}, "Flt3(h)": {"molecular_target": "Flt3(h) (Homo sapiens, UniProt P36888)", "sequence (P36888 27-993)": "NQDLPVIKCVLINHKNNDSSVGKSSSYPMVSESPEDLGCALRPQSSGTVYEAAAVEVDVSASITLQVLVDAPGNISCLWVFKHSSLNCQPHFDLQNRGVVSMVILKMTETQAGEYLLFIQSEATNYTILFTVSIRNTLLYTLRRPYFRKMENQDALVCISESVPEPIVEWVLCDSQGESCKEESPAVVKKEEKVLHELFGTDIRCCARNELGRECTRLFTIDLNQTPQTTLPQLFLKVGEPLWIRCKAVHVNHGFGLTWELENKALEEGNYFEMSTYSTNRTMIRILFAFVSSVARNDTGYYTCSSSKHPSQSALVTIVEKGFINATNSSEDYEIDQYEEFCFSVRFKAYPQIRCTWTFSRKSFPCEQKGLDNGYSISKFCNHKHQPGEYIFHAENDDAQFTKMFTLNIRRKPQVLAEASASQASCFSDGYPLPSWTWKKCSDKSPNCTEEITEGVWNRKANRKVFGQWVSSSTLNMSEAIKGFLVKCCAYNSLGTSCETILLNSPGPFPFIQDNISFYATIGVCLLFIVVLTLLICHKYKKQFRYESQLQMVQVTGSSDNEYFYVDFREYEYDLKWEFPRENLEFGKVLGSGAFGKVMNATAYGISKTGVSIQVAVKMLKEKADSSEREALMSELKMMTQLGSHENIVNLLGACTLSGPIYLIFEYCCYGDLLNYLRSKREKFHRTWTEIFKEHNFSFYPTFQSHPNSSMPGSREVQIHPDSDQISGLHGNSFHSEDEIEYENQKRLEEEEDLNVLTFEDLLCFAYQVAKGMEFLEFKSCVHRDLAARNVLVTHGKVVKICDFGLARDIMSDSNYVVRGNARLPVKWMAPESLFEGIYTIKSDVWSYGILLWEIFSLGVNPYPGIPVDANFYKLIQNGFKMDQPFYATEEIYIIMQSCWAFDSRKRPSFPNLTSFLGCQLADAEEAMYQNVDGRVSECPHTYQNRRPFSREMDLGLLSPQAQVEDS", "test": "Kinase panel, residual activity", "format": "biochemical", "settings": "read-out: Percent residual activity", "description": "as §1"}, "Fgr(h)": {"molecular_target": "Fgr(h) (Homo sapiens, UniProt P09769)", "test": "Kinase panel, residual activity", "format": "biochemical", "settings": "read-out: Percent residual activity", "description": "as §1"}, "MKK6(h)": {"molecular_target": "MKK6(h) (Homo sapiens, UniProt P52564)", "sequence (P52564 whole entry)": "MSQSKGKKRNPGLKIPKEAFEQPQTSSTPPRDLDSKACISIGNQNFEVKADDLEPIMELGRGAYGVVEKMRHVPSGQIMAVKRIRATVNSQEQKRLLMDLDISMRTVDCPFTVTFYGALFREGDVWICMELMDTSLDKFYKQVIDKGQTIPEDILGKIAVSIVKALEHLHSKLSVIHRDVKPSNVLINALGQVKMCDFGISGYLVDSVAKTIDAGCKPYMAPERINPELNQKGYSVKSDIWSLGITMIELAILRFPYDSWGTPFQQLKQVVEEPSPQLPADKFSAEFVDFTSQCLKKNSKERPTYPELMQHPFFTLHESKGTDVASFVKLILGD", "test": "Kinase panel, residual activity", "format": "biochemical", "settings": "read-out: Percent residual activity", "description": "as §1"}, "CHK2(h)": {"molecular_target": "CHK2(h) (Homo sapiens, UniProt O96017)", "test": "Kinase panel, residual activity", "format": "biochemical", "settings": "read-out: Percent residual activity", "description": "as §1"}, "IKKβ(h)": {"molecular_target": "IKKβ(h) (Homo sapiens, UniProt O14920)", "sequence (O14920 whole entry)": "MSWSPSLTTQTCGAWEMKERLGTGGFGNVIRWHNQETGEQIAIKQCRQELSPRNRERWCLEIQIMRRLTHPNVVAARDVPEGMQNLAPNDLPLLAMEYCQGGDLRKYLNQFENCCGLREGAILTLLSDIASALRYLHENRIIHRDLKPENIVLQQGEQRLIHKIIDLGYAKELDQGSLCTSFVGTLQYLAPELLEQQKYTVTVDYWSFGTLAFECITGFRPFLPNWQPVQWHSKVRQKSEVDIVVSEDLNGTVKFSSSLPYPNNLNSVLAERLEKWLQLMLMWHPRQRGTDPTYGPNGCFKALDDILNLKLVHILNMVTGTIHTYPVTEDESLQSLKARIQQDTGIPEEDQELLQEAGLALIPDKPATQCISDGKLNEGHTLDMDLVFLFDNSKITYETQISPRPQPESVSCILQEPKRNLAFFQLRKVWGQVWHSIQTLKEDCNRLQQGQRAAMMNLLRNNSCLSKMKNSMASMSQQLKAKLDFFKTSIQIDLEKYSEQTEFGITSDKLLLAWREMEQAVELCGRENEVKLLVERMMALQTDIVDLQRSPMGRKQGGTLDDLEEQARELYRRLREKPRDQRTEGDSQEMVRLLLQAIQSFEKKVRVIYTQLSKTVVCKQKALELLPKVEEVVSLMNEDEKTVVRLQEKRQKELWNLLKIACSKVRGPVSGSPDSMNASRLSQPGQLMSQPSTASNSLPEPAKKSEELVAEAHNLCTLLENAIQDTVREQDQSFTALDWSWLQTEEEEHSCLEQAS", "test": "Kinase panel, residual activity", "format": "biochemical", "settings": "read-out: Percent residual activity", "description": "as §1"}, "Hck(h)": {"molecular_target": "Hck(h) (Homo sapiens, UniProt P08631)", "sequence (P08631 whole entry)": "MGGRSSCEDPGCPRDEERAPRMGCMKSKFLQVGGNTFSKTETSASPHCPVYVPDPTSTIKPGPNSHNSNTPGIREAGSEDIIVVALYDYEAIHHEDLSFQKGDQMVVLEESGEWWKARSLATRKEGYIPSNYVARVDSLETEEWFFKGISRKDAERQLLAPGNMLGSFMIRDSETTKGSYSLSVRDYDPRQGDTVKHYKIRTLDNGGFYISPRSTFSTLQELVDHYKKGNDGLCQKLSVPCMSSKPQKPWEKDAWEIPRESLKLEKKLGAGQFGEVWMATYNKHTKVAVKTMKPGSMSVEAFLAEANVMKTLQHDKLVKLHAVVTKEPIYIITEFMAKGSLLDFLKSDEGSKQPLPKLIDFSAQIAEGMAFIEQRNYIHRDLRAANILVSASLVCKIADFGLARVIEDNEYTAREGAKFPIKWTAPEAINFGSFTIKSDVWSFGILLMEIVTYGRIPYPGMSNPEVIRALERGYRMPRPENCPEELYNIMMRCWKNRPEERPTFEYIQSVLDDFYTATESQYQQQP", "test": "Kinase panel, residual activity", "format": "biochemical", "settings": "read-out: Percent residual activity", "description": "as §1"}, "IRAK4(h)": {"molecular_target": "IRAK4(h) (Homo sapiens, UniProt Q9NWZ3)", "test": "Kinase panel, residual activity", "format": "biochemical", "settings": "read-out: Percent residual activity", "description": "as §1"}, "EphB2(h)": {"molecular_target": "EphB2(h) (Homo sapiens, UniProt P29323)", "test": "Kinase panel, residual activity", "format": "biochemical", "settings": "read-out: Percent residual activity", "description": "as §1"}, "p70S6K(h)": {"system": "p70S6K(h)", "test": "Kinase panel, residual activity", "format": "biochemical, human", "settings": "0.2 μM", "description": "as §1"}, "[1]": {"system": "HT29 (Human colon, B-Raf V599E)", "test": "Cell proliferation assay (Cell Titer Glo)", "format": "cell-based", "description": "(§2) In one illustrative method, cells are treated with various concentrations of the inhibitor in 96 well plates, incubated at 37° C./5% CO2 for three days, and analyzed using the Cell Titer Glo kit (Promega).\n(§3) COLO829 is a human melanoma cell line. HT29 is a human colon cancer cell line. Both cell lines have a V600E B-Raf mutation. SKOV3 is an ovarian cancer cell line having wild-type B-Raf. EKR2 (extra-cellular signal regulated kinase 2) is a kinase in the Ras/B-Raf MAP kinase cascade pathway."}, "[2]": {"system": "COLO829 (Human melanoma, B-Raf V599E)", "test": "Cell proliferation assay (Cell Titer Glo)", "format": "cell-based", "description": "as §2, §3"}}, "note": "Read-outs that look alike come from different tables or passages of the source.", "data": [{"molecule": "COc1cc(O)c2c(c1)[C@H]1O[C@@H]1C[C@H](O)[C@H](O)C(=O)/C=C\\C[C@H](C)OC2=O", "note": "[Hypothemycin, hypothemycin]", "values": [{"measurement": "remaining activity at 0.2 µM", "setting": "Fes(h)", "value": 92, "unit": "%"}, {"measurement": "remaining activity at 0.2 µM", "setting": "Syk(h)", "value": 105, "unit": "%"}, {"measurement": "remaining activity at 0.2 µM", "setting": "CDK5/p35(h)", "value": 103, "unit": "%"}, {"measurement": "remaining activity at 0.2 µM", "setting": "IKKα(h)", "value": 101, "unit": "%"}, {"measurement": "remaining activity at 0.2 µM", "setting": "CHK1(h)", "value": 94, "unit": "%"}, {"measurement": "remaining activity at 0.2 µM", "setting": "JNK3(h)", "value": 76, "unit": "%"}, {"measurement": "remaining activity at 0.2 µM", "setting": "Ron(h)", "value": 91, "unit": "%"}, {"measurement": "remaining activity at 0.2 µM", "setting": "PKCη(h)", "value": 97, "unit": "%"}, {"measurement": "remaining activity at 0.2 µM", "setting": "SAPK2a(h)", "value": 107, "unit": "%"}, {"measurement": "remaining activity at 0.2 µM", "setting": "PKCγ(h)", "value": 98, "unit": "%"}, {"measurement": "remaining activity at 0.2 µM", "setting": "ROCK-I(h)", "value": 121, "unit": "%"}, {"measurement": "remaining activity at 0.2 µM", "setting": "cKit(D816V)(h); 0.2 μM", "value": 57, "unit": "%"}, {"measurement": "remaining activity at 2 µM", "setting": "cKit(D816V)(h); 2.0 μM", "value": 0, "unit": "%"}, {"measurement": "remaining activity at 0.2 µM", "setting": "CDK3/cyclinE(h)", "value": 95, "unit": "%"}, {"measurement": "remaining activity at 0.2 µM", "setting": "FGFR3(h)", "value": 102, "unit": "%"}, {"measurement": "remaining activity at 0.2 µM", "setting": "CK1δ(h)", "value": 105, "unit": "%"}, {"measurement": "remaining activity at 0.2 µM", "setting": "PAK2(h)", "value": 104, "unit": "%"}, {"measurement": "remaining activity at 0.2 µM", "setting": "Abl(h)", "value": 98, "unit": "%"}, {"measurement": "remaining activity at 0.2 µM", "setting": "JNK1α1(h)", "value": 97, "unit": "%"}, {"measurement": "remaining activity at 0.2 µM", "setting": "EGFR(h); 0.2 μM", "value": 106, "unit": "%"}, {"measurement": "remaining activity at 2 µM", "setting": "EGFR(h); 2.0 μM", "value": 94, "unit": "%"}, {"measurement": "remaining activity at 0.2 µM", "setting": "SAPK2b(h)", "value": 104, "unit": "%"}, {"measurement": "remaining activity at 0.2 µM", "setting": "Met(h)", "value": 96, "unit": "%"}, {"measurement": "remaining activity at 0.2 µM", "setting": "CSK(h)", "value": 104, "unit": "%"}, {"measurement": "remaining activity at 0.2 µM", "setting": "Flt3(h); 0.2 μM", "value": 6, "unit": "%"}, {"measurement": "remaining activity at 2 µM", "setting": "Flt3(h); 2.0 μM", "value": 3, "unit": "%"}, {"measurement": "remaining activity at 0.2 µM", "setting": "Fgr(h)", "value": 100, "unit": "%"}, {"measurement": "remaining activity at 0.2 µM", "setting": "MKK6(h); 0.2 μM", "value": 43, "unit": "%"}, {"measurement": "remaining activity at 2 µM", "setting": "MKK6(h); 2.0 μM", "value": 8, "unit": "%"}, {"measurement": "remaining activity at 0.2 µM", "setting": "CHK2(h)", "value": 97, "unit": "%"}, {"measurement": "remaining activity at 0.2 µM", "setting": "IKKβ(h); 0.2 μM", "value": 81, "unit": "%"}, {"measurement": "remaining activity at 2 µM", "setting": "IKKβ(h); 2.0 μM", "value": 94, "unit": "%"}, {"measurement": "remaining activity at 0.2 µM", "setting": "Hck(h); 0.2 μM", "value": 78, "unit": "%"}, {"measurement": "remaining activity at 2 µM", "setting": "Hck(h); 2.0 μM", "value": 91, "unit": "%"}, {"measurement": "remaining activity at 0.2 µM", "setting": "IRAK4(h)", "value": 84, "unit": "%"}, {"measurement": "remaining activity at 0.2 µM", "setting": "EphB2(h)", "value": 118, "unit": "%"}, {"measurement": "Percent residual activity", "setting": "p70S6K(h)", "value": 94, "unit": "%"}, {"measurement": "IC50", "setting": "[1]; HT-29, Table 7, HT29 human colon cancer, V600E B-Raf, read-out: Cell Line IC50 HT29", "value": "240 ± 170", "unit": "nM"}, {"measurement": "IC50", "setting": "[1]; Homo sapiens, HT-29, read-out: Kinase Inhibitor IC50", "value": 100, "unit": "nM"}, {"measurement": "IC50", "setting": "[2]; COLO-829, Table 7, COLO829 human melanoma, V600E B-Raf, read-out: Cell Line IC50 COLO829", "value": "73 ± 17", "unit": "nM"}, {"measurement": "GI50", "setting": "[2]; Homo sapiens, COLO-829", "value": 50, "unit": "nM"}, {"measurement": "IC50", "setting": "[2]; Homo sapiens, COLO-829, read-out: Kinase Inhibitor IC50", "value": 89, "unit": "nM"}]}]}
